Results: PMC8245078, “Development of novel benzofuran-isatin conjugates as potential antiproliferative agents with apoptosis inducing mechanism in Colon cancer” (Journal of Enzyme Inhibition and Medicinal Chemistry, 2021)
Where two headings read alike, the source gives them in different places.

Key:
Format in all cases: cell-based
MCF7 = experiment: NCI single dose screening (10 µM); details: Homo sapiens
MOLT-4 = experiment: NCI single dose screening (10 µM); details: Homo sapiens
HOP-92 = experiment: NCI single dose screening (10 µM); details: Homo sapiens
COLO 205 = experiment: NCI single dose screening (10 µM); details: Homo sapiens
DU-145 = experiment: NCI single dose screening (10 µM); details: Homo sapiens
CAKI-1 = experiment: NCI single dose screening (10 µM); details: Homo sapiens
NCI-H522 = experiment: NCI single dose screening (10 µM); details: Homo sapiens
HCC-2998 = experiment: NCI single dose screening (10 µM); details: Homo sapiens
MDA-MB-231/ATCC = experiment: NCI single dose screening (10 µM); details: Homo sapiens
EKVX = experiment: NCI single dose screening (10 µM); details: Homo sapiens, read-out: GI% (cell growth inhibition percentage)
ACHN = experiment: NCI single dose screening (10 µM); details: Homo sapiens, read-out: GI% (cell growth inhibition percentage)
786-0 = experiment: NCI single dose screening (10 µM); details: Homo sapiens
SK-MEL-28 = experiment: NCI single dose screening (10 µM); details: Homo sapiens
LOX IMVI = experiment: NCI single dose screening (10 µM); details: Homo sapiens, read-out: GI% (cell growth inhibition percentage)
PC-3 = experiment: NCI single dose screening (10 µM); details: Homo sapiens
NCI-H23 = experiment: NCI single dose screening (10 µM); details: Homo sapiens
SN12C = experiment: NCI single dose screening (10 µM); details: Homo sapiens, read-out: GI% (cell growth inhibition percentage)
HCT-15 = experiment: NCI single dose screening (10 µM); details: Homo sapiens
MDA-MB-468 = experiment: NCI single dose screening (10 µM); details: Homo sapiens
HCT-116 = experiment: NCI single dose screening (10 µM); details: Homo sapiens
M14 = experiment: NCI single dose screening (10 µM); details: Homo sapiens
SR = experiment: NCI single dose screening (10 µM); details: Homo sapiens, read-out: GI% (cell growth inhibition percentage)
U251 = experiment: NCI single dose screening (10 µM); details: Homo sapiens
[1] = tested on: NCI-55 cancer cell line panel; experiment: NCI single dose screening (10 µM), whole panel; details: Homo sapiens, read-out: Mean inhibition, % (mean GI%)
OVCAR-4 = experiment: NCI single dose screening (10 µM); details: Homo sapiens
K-562 = experiment: NCI single dose screening (10 µM); details: Homo sapiens
HOP-62 = experiment: NCI single dose screening (10 µM); details: Homo sapiens
A549/ATCC = experiment: NCI single dose screening (10 µM); details: Homo sapiens
RXF 393 = experiment: NCI single dose screening (10 µM); details: Homo sapiens
BT-549 = experiment: NCI single dose screening (10 µM); details: Homo sapiens
NCI-H460 = experiment: NCI single dose screening (10 µM); details: Homo sapiens
MDA-MB-435 = experiment: NCI single dose screening (10 µM); details: Homo sapiens
[2] = MCF7, read-out: GI% (cell growth inhibition percentage)
[3] = MOLT-4, read-out: GI% (cell growth inhibition percentage)
[4] = HOP-92, read-out: GI% (cell growth inhibition percentage)
[5] = COLO 205, read-out: GI% (cell growth inhibition percentage)
[6] = DU-145, read-out: GI% (cell growth inhibition percentage)
[7] = CAKI-1, read-out: GI% (cell growth inhibition percentage)
[8] = NCI-H522, read-out: GI% (cell growth inhibition percentage)
[9] = HCC 2998, read-out: GI% (cell growth inhibition percentage)
[10] = MDA-MB-231, read-out: GI% (cell growth inhibition percentage)
[11] = 786-0, read-out: GI% (cell growth inhibition percentage)
[12] = SK-MEL-28, read-out: GI% (cell growth inhibition percentage)
[13] = PC-3, read-out: GI% (cell growth inhibition percentage)
[14] = NCI-H23, read-out: GI% (cell growth inhibition percentage)
[15] = HCT-15, read-out: GI% (cell growth inhibition percentage)
[16] = MDA-MB-468, read-out: GI% (cell growth inhibition percentage)
[17] = HCT-116, read-out: GI% (cell growth inhibition percentage)
[18] = M14, read-out: GI% (cell growth inhibition percentage)
[19] = U-251, read-out: GI% (cell growth inhibition percentage)
[20] = OVCAR-4, read-out: GI% (cell growth inhibition percentage)
[21] = K562, read-out: GI% (cell growth inhibition percentage)
[22] = HOP-62, read-out: GI% (cell growth inhibition percentage)
[23] = A549, read-out: GI% (cell growth inhibition percentage)
[24] = RXF 393, read-out: GI% (cell growth inhibition percentage)
[25] = BT-549, read-out: GI% (cell growth inhibition percentage)
[26] = NCI-H460, read-out: GI% (cell growth inhibition percentage)
[27] = MDA-MB-435, read-out: GI% (cell growth inhibition percentage)
[28] = Renal cancer, single dose 10^−5 M

## CCCN1C(=O)/C(=N\NC(=O)c2oc3ccccc3c2C)c2cc(Br)ccc21 [Compound 7g]
MCF7; [2]
  inhibition at 10 µM: 13.2%
MOLT-4; [3]
  inhibition at 10 µM: < 10%
HOP-92; [4]
  inhibition at 10 µM: < 10%
COLO 205; [5]
  inhibition at 10 µM: < 10%
DU-145; [6]
  inhibition at 10 µM: < 10%
CAKI-1; [7]
  inhibition at 10 µM: 14.1%
NCI-H522; [8]
  inhibition at 10 µM: < 10%
HCC-2998; [9]
  inhibition at 10 µM: < 10%
MDA-MB-231/ATCC; [10]
  inhibition at 10 µM: < 10%
EKVX
  inhibition at 10 µM: 18.1%
ACHN
  inhibition at 10 µM: < 10%
786-0; [11]
  inhibition at 10 µM: < 10%
SK-MEL-28; [12]
  inhibition at 10 µM: < 10%
LOX IMVI
  inhibition at 10 µM: < 10%
PC-3; [13]
  inhibition at 10 µM: < 10%
NCI-H23; [14]
  inhibition at 10 µM: < 10%
SN12C
  inhibition at 10 µM: < 10%
HCT-15; [15]
  inhibition at 10 µM: < 10%
MDA-MB-468; [16]
  inhibition at 10 µM: < 10%
HCT-116; [17]
  inhibition at 10 µM: < 10%
M14; [18]
  inhibition at 10 µM: < 10%
SR
  inhibition at 10 µM: < 10%
U251; [19]
  inhibition at 10 µM: < 10%
[1]
  inhibition at 10 µM: -0.8%
OVCAR-4; [20]
  inhibition at 10 µM: < 10%
K-562; [21]
  inhibition at 10 µM: < 10%
HOP-62; [22]
  inhibition at 10 µM: < 10%
A549/ATCC; [23]
  inhibition at 10 µM: < 10%
RXF 393; [24]
  inhibition at 10 µM: < 10%
BT-549; [25]
  inhibition at 10 µM: < 10%
NCI-H460; [26]
  inhibition at 10 µM: < 10%
MDA-MB-435; [27]
  inhibition at 10 µM: < 10%

## Cc1c(C(=O)N/N=C2\C(=O)Nc3ccc(Br)cc32)oc2ccccc12 [Compound 5c]
MCF7; MCF7, Breast cancer, single dose 10^−5 M, read-out: GI% (cell growth inhibition percentage)
  inhibition at 10 µM: 26.7%
MOLT-4; MOLT-4, Leukaemia, single dose 10^−5 M, read-out: GI% (cell growth inhibition percentage)
  inhibition at 10 µM: < 10%
HOP-92; HOP-92, Non-small cell lung cancer, single dose 10^−5 M, read-out: GI% (cell growth inhibition percentage)
  inhibition at 10 µM: 26.5%
COLO 205; COLO 205, Colon cancer, single dose 10^−5 M, read-out: GI% (cell growth inhibition percentage)
  inhibition at 10 µM: < 10%
DU-145; DU-145, Prostate cancer, single dose 10^−5 M, read-out: GI% (cell growth inhibition percentage)
  inhibition at 10 µM: 17%
CAKI-1; CAKI-1, Renal cancer, single dose 10^−5 M, read-out: GI% (cell growth inhibition percentage)
  inhibition at 10 µM: 26.6%
NCI-H522; NCI-H522, Non-small cell lung cancer, single dose 10^−5 M, read-out: GI% (cell growth inhibition percentage)
  inhibition at 10 µM: 10.3%
HCC-2998; HCC-2998, Colon cancer, single dose 10^−5 M, read-out: GI% (cell growth inhibition percentage)
  inhibition at 10 µM: < 10%
MDA-MB-231/ATCC; MDA-MB-231/ATCC, Breast cancer, single dose 10^−5 M, read-out: GI% (cell growth inhibition percentage)
  inhibition at 10 µM: 29.9%
EKVX; Non-small cell lung cancer, single dose 10^−5 M
  inhibition at 10 µM: 32.1%
ACHN; [28]
  inhibition at 10 µM: 35.5%
786-0; 786-0, Renal cancer, single dose 10^−5 M, read-out: GI% (cell growth inhibition percentage)
  inhibition at 10 µM: 34.7%
SK-MEL-28; SK-MEL-28, Melanoma, single dose 10^−5 M, read-out: GI% (cell growth inhibition percentage)
  inhibition at 10 µM: < 10%
LOX IMVI; Melanoma, single dose 10^−5 M
  inhibition at 10 µM: 33.8%
PC-3; PC-3, Prostate cancer, single dose 10^−5 M, read-out: GI% (cell growth inhibition percentage)
  inhibition at 10 µM: 13.8%
NCI-H23; NCI-H23, Non-small cell lung cancer, single dose 10^−5 M, read-out: GI% (cell growth inhibition percentage)
  inhibition at 10 µM: 33%
SN12C; [28]
  inhibition at 10 µM: 29.8%
HCT-15; HCT-15, Colon cancer, single dose 10^−5 M, read-out: GI% (cell growth inhibition percentage)
  inhibition at 10 µM: < 10%
MDA-MB-468; MDA-MB-468, Breast cancer, single dose 10^−5 M, read-out: GI% (cell growth inhibition percentage)
  inhibition at 10 µM: < 10%
HCT-116; HCT-116, Colon cancer, single dose 10^−5 M, read-out: GI% (cell growth inhibition percentage)
  inhibition at 10 µM: 32%
M14; M14, Melanoma, single dose 10^−5 M, read-out: GI% (cell growth inhibition percentage)
  inhibition at 10 µM: 25.4%
SR; Leukaemia, single dose 10^−5 M
  inhibition at 10 µM: 17.6%
U251; U-251, U251, CNS cancer, single dose 10^−5 M, read-out: GI% (cell growth inhibition percentage)
  inhibition at 10 µM: 42.6%
[1]; mean over NCI-55 cell lines, single dose 10^−5 M
  inhibition at 10 µM: 22%
OVCAR-4; OVCAR-4, Ovarian cancer, single dose 10^−5 M, read-out: GI% (cell growth inhibition percentage)
  inhibition at 10 µM: 31%
K-562; K562, K-562, Leukaemia, single dose 10^−5 M, read-out: GI% (cell growth inhibition percentage)
  inhibition at 10 µM: 18%
HOP-62; HOP-62, Non-small cell lung cancer, single dose 10^−5 M, read-out: GI% (cell growth inhibition percentage)
  inhibition at 10 µM: 41.4%
A549/ATCC; A549/ATCC, Non-small cell lung cancer, single dose 10^−5 M, read-out: GI% (cell growth inhibition percentage)
  inhibition at 10 µM: 27.9%
RXF 393; RXF 393, Renal cancer, single dose 10^−5 M, read-out: GI% (cell growth inhibition percentage)
  inhibition at 10 µM: 11.1%
BT-549; BT-549, Breast cancer, single dose 10^−5 M, read-out: GI% (cell growth inhibition percentage)
  inhibition at 10 µM: 22.1%
NCI-H460; NCI-H460, Non-small cell lung cancer, single dose 10^−5 M, read-out: GI% (cell growth inhibition percentage)
  inhibition at 10 µM: 42.6%
MDA-MB-435; MDA-MB-435, Melanoma, single dose 10^−5 M, read-out: GI% (cell growth inhibition percentage)
  inhibition at 10 µM: < 10%

## Cc1c(C(=O)N/N=C2\C(=O)N(Cc3ccccc3)c3ccccc32)oc2ccccc12 [Compound 7d]
MCF7; [2]
  inhibition at 10 µM: 16.7%
MOLT-4; [3]
  inhibition at 10 µM: < 10%
HOP-92; [4]
  inhibition at 10 µM: 12.6%
COLO 205; [5]
  inhibition at 10 µM: < 10%
DU-145; [6]
  inhibition at 10 µM: < 10%
CAKI-1; [7]
  inhibition at 10 µM: 19%
NCI-H522; [8]
  inhibition at 10 µM: 21.7%
HCC-2998; [9]
  inhibition at 10 µM: < 10%
MDA-MB-231/ATCC; [10]
  inhibition at 10 µM: 18.3%
EKVX
  inhibition at 10 µM: 30.2%
ACHN
  inhibition at 10 µM: 13.3%
786-0; [11]
  inhibition at 10 µM: < 10%
SK-MEL-28; [12]
  inhibition at 10 µM: < 10%
LOX IMVI
  inhibition at 10 µM: 13.8%
PC-3; [13]
  inhibition at 10 µM: 15.7%
NCI-H23; [14]
  inhibition at 10 µM: 13.2%
SN12C
  inhibition at 10 µM: < 10%
HCT-15; [15]
  inhibition at 10 µM: < 10%
MDA-MB-468; [16]
  inhibition at 10 µM: < 10%
HCT-116; [17]
  inhibition at 10 µM: < 10%
M14; [18]
  inhibition at 10 µM: < 10%
SR
  inhibition at 10 µM: < 10%
U251; [19]
  inhibition at 10 µM: < 10%
[1]
  inhibition at 10 µM: 6.01%
OVCAR-4; [20]
  inhibition at 10 µM: < 10%
K-562; [21]
  inhibition at 10 µM: < 10%
HOP-62; [22]
  inhibition at 10 µM: 20.8%
A549/ATCC; [23]
  inhibition at 10 µM: < 10%
RXF 393; [24]
  inhibition at 10 µM: < 10%
BT-549; [25]
  inhibition at 10 µM: < 10%
NCI-H460; [26]
  inhibition at 10 µM: 25%
MDA-MB-435; [27]
  inhibition at 10 µM: < 10%
